Reference: patent US6982276B2, “Polymorphs of an epothilone analog” (Bristol-Myers Squibb Company, priority 2000, dated 2006)

Assay: Solution calorimetry (Thermometrics Microcalorimeter) in ethanol at 25° C.
Assay type: physicochemical
Conditions: for Heat of Solution: in ethanol at 25° C.
Protocol: Solution calorimetry was determined using a Thermometrics Microcalorimeter in ethanol at 25° C. The solubilities were likewise determined at 25° C.

Row | Relative stability of the polymorph forms (concluded from the data, particularly the heat of solution) | Heat of Solution [kcal/mol] | Compound
1 | more stable | 4.92 | C/C(=C\c1csc(C)n1)[C@@H]1CC2O[C@]2(C)CCC[C@H](C)[C@H](O)[C@@H](C)C(=O)C(C)(C)[C@@H](O)CC(=O)N1 (single isomer, unassigned) [Form A, [1S-[1R*,3R*(E),7R*,10S*,11R*,12R*,16S*]]-7,11-Dihydroxy-8,8,10,12,16-pentamethyl-3-[1-methyl-2-(2-methyl-4-thiazolyl)ethenyl]-4-aza-17-oxabicyclo[14.1.0]heptadecane-5,9-dione, Form A]
2 | – | 2.36 | C/C(=C\c1csc(C)n1)[C@@H]1CC2O[C@]2(C)CCC[C@H](C)[C@H](O)[C@@H](C)C(=O)C(C)(C)[C@@H](O)CC(=O)N1 (single isomer, unassigned) [Form B, [1S-[1R*,3R*(E),7R*,10S*,11R*,12R*,16S*]]-7,11-Dihydroxy-8,8,10,12,16-pentamethyl-3-[1-methyl-2-(2-methyl-4-thiazolyl)ethenyl]-4-aza-17-oxabicyclo[14.1.0]heptadecane-5,9-dione, Form B]
